pEC50: −log10 of the molar value.
Key:
hypothalamic slices = hypothalamic slices in vitro; cited from earlier work
Y4R = Y4R (Homo sapiens, UniProt P50391); assay: Ca flux assay (FLIPR), Y4R; format: cell-based
Y1R = biological target: T1, Y1R (Homo sapiens, UniProt P25929); assay: Ca flux assay (FLIPR), Y1R; format: cell-based
T1 sequence (P25929 1-384): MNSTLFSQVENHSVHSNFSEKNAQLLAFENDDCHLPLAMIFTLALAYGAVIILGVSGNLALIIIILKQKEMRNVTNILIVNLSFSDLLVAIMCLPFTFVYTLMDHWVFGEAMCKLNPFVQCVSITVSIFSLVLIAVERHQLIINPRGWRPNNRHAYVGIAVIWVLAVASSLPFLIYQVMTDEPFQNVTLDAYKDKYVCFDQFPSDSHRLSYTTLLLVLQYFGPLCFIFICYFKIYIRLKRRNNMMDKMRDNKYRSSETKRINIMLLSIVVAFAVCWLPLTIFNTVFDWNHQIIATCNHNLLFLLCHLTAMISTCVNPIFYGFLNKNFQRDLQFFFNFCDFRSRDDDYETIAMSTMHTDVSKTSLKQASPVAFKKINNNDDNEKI

Y5R = biological target: T2, Y5R (Homo sapiens, UniProt Q15761); assay: Ca flux assay (FLIPR), Y5R; format: cell-based; conditions: for Emax: read-out: Y5R FLIPR, percentage in brackets beside the EC50
T2 sequence (Q15761 1-445): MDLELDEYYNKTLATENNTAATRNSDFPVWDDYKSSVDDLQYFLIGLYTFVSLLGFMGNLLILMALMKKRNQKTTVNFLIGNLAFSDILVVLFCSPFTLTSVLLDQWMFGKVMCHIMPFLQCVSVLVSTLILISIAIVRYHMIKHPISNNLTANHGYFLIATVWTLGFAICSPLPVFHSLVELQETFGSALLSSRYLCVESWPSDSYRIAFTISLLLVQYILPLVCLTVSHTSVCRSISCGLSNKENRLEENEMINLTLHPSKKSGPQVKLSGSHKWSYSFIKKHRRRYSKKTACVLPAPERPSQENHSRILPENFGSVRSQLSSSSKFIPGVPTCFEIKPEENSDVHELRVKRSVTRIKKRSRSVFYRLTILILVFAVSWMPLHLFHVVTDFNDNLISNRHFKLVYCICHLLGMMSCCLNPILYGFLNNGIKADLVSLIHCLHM

human NPY2-receptors = biological target: T3, human NPY2-receptors (Homo sapiens, UniProt P49146); assay: cAMP agonist assay, Y2R; format: cell-based
T3 construct: expressed in transfected cells; host or cells: HEK293 (G418 selection in the medium)
T3 sequence (P49146 1-381): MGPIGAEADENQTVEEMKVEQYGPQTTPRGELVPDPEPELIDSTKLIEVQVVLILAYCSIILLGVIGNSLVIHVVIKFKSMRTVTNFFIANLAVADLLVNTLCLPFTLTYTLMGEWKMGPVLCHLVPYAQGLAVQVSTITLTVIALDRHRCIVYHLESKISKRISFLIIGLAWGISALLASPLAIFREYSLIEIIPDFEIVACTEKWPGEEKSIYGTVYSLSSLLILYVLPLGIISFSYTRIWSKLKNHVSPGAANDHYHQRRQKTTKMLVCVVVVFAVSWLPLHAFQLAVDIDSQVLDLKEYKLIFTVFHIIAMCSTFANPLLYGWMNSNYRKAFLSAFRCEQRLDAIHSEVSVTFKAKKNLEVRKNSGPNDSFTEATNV
Procedure: HEK293 cells expressing human NPY2-receptors were plated in a 384-well plate at a density of 9000 cells/well using a Multi-drop dispenser and the plates were grown overnight at 37° C.
The media and reagents were warmed to room temperature. Before the dilutions were prepared, the stock solution of NPY2-receptor ligands and controls in dimethyl sulphoxide (DMSO, Sigma Cat. #D2650) was allowed to warm up to 32° C. for 5-10 min.
The plating media was removed by gentle inversion of the 384-well plate on a paper towel and was replaced with incubation medium (50 μ/L well) containing various concentrations of NPY2-receptor ligands (four replicates/concentration). The plates were incubated at room temperature for 30 min. Following the 30 min treatment period, the incubation media was discarded and replaced with 50 μL/well of Assay Lysis Buffer (provided in the Tropix kit). The cells were lysed by incubating plates for 45 min @ 37° C. The lysate (20 μl) was transferred into the pre-coated antibody plates (384-well) supplied in the Tropix kit. AP conjugate (10 μL) and of anti-cAMP antibody (20 μL) was added to each well and the plates incubated on a shaker at room temperature for 1 h. The plates were washed 5 times with Wash Buffer (70 μL/well/wash) and the plates tapped dry. […] The signal in each well was measured (1 sec/well) using a Luminometer (VICTOR-V).

Chain of Y4R (P50391 whole entry): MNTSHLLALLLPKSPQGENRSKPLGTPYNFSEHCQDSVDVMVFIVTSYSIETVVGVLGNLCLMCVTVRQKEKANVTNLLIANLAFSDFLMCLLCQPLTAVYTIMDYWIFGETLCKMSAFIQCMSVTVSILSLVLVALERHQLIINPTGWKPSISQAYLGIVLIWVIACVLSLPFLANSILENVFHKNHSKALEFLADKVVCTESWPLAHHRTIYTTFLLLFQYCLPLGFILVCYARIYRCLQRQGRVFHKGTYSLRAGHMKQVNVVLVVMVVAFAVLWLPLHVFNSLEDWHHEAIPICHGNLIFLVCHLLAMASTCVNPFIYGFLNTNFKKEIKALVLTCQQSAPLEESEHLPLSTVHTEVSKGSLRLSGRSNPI

Compound | NPY release (hypothalamic slices) | pEC50 (Y4R) | pEC50 (Y1R) | pEC50 (Y5R) | Emax (Y5R) [%] | pEC50 (human NPY2-receptors)
N=C(N)NCCC[C@H](NC(=O)CC1(CC(=O)N2CCN(C3c4ccccc4NC(=O)c4ccccc43)CC2)CCCC1)C(=O)NCCn1c(=O)n(-c2ccccc2)n(-c2ccccc2)c1=O (stereo partly shown) [BIIE0246] | increases NPY release | – | – | – | – | –
CC[C@H](C)[C@H](NC(C)=O)C(=O)N[C@@H](CCCCN)C(=O)NCc1ccc(-c2cccc(CC(=O)N[C@@H](CCCNC(=N)N)C(=O)N[C@@H](Cc3c[nH]cn3)C(=O)N[C@@H](Cc3ccc(O)cc3)C(=O)N[C@@H](CC(C)C)C(=O)N[C@@H](CC(N)=O)C(=O)N[C@@H](Cc3c[nH]c4ccccc34)C(=O)N[C@H](C(=O)N[C@H](C(=O)N[C@@H](CCCNC(=N)N)C(=O)N[C@@H](CCC(N)=O)C(=O)N(C)[C@@H](CCCNC(=N)N)C(=O)N[C@@H](Cc3ccc(O)cc3)C(N)=O)[C@@H](C)O)C(C)C)c2)cc1 [Example 5] | – | < 4.52 | < 4.52 | < 4.52 | – | –
CC[C@H](C)[C@H](NC(C)=O)C(=O)N[C@@H](CCCCN)C(=O)N1CCN(c2ccc3c(ccn3CC(=O)N[C@@H](CCCNC(=N)N)C(=O)N[C@@H](Cc3c[nH]cn3)C(=O)N[C@@H](Cc3ccc(O)cc3)C(=O)N[C@@H](CC(C)C)C(=O)N[C@@H](CC(N)=O)C(=O)N[C@@H](Cc3c[nH]c4ccccc34)C(=O)N[C@H](C(=O)N[C@H](C(=O)N[C@@H](CCCNC(=N)N)C(=O)N[C@@H](CCC(N)=O)C(=O)N(C)[C@@H](CCCNC(=N)N)C(=O)N[C@@H](Cc3ccc(O)cc3)C(N)=O)[C@@H](C)O)C(C)C)c2)CC1 [Example 6] | – | < 4.52 | < 4.52 | 4.97 | – | –
CC[C@H](C)[C@H](NC(C)=O)C(=O)N[C@@H](CCCCN)C(=O)N1CCCN(c2ccc3ncn(CC(=O)N[C@@H](CCCNC(=N)N)C(=O)N[C@@H](Cc4c[nH]cn4)C(=O)N[C@@H](Cc4ccc(O)cc4)C(=O)N[C@@H](CC(C)C)C(=O)N[C@@H](CC(N)=O)C(=O)N[C@@H](Cc4c[nH]c5ccccc45)C(=O)N[C@H](C(=O)N[C@H](C(=O)N[C@@H](CCCNC(=N)N)C(=O)N[C@@H](CCC(N)=O)C(=O)N(C)[C@@H](CCCNC(=N)N)C(=O)N[C@@H](Cc4ccc(O)cc4)C(N)=O)[C@@H](C)O)C(C)C)c(=O)c3c2)CC1 [Example 8] | – | < 5.05 | < 5.05 | 5.22 | – | –
CC[C@H](C)[C@H](NC(C)=O)C(=O)N[C@@H](CCCCN)C(=O)N1CCN(c2nc3ncn(CC(=O)N[C@@H](CCCNC(=N)N)C(=O)N[C@@H](Cc4c[nH]cn4)C(=O)N[C@@H](Cc4ccc(O)cc4)C(=O)N[C@@H](CC(C)C)C(=O)N[C@@H](CC(N)=O)C(=O)N[C@@H](Cc4c[nH]c5ccccc45)C(=O)N[C@H](C(=O)N[C@H](C(=O)N[C@@H](CCCNC(=N)N)C(=O)N[C@@H](CCC(N)=O)C(=O)N(C)[C@@H](CCCNC(=N)N)C(=O)N[C@@H](Cc4ccc(O)cc4)C(N)=O)[C@@H](C)O)C(C)C)c3c(=O)[nH]2)CC1 [Example 9] | – | < 5.05 | < 5.05 | < 5.05 | – | –
CC[C@H](C)[C@H](NC(C)=O)C(=O)N[C@@H](CCCCN)C(=O)N1CCN(c2ncc3c(ncn3CC(=O)N[C@@H](CCCNC(=N)N)C(=O)N[C@@H](Cc3c[nH]cn3)C(=O)N[C@@H](Cc3ccc(O)cc3)C(=O)N[C@@H](CC(C)C)C(=O)N[C@@H](CC(N)=O)C(=O)N[C@@H](Cc3c[nH]c4ccccc34)C(=O)N[C@H](C(=O)N[C@H](C(=O)N[C@@H](CCCNC(=N)N)C(=O)N[C@@H](CCC(N)=O)C(=O)N(C)[C@@H](CCCNC(=N)N)C(=O)N[C@@H](Cc3ccc(O)cc3)C(N)=O)[C@@H](C)O)C(C)C)n2)CC1 [Example 10] | – | < 5.30 | < 5.30 | 5.96 | 48 | –
CC[C@H](C)[C@H](NC(C)=O)C(=O)N[C@@H](CCCCN)C(=O)N1CCN(c2nc(N)c3c(ncn3CC(=O)N[C@@H](CCCNC(=N)N)C(=O)N[C@@H](Cc3c[nH]cn3)C(=O)N[C@@H](Cc3ccc(O)cc3)C(=O)N[C@@H](CC(C)C)C(=O)N[C@@H](CC(N)=O)C(=O)N[C@@H](Cc3c[nH]c4ccccc34)C(=O)N[C@H](C(=O)N[C@H](C(=O)N[C@@H](CCCNC(=N)N)C(=O)N[C@@H](CCC(N)=O)C(=O)N(C)[C@@H](CCCNC(=N)N)C(=O)N[C@@H](Cc3ccc(O)cc3)C(N)=O)[C@@H](C)O)C(C)C)n2)CC1 [Example 11] | – | < 5.30 | < 5.30 | 5.48 | 39 | 9.74
CC[C@H](C)[C@H](NC(C)=O)C(=O)N[C@@H](CCCCN)C(=O)N1CC2CC1CC2c1ccc2ncn(CC(=O)N[C@@H](CCCNC(=N)N)C(=O)N[C@@H](Cc3c[nH]cn3)C(=O)N[C@@H](Cc3ccc(O)cc3)C(=O)N[C@@H](CC(C)C)C(=O)N[C@@H](CC(N)=O)C(=O)N[C@@H](Cc3c[nH]c4ccccc34)C(=O)N[C@H](C(=O)N[C@H](C(=O)N[C@@H](CCCNC(=N)N)C(=O)N[C@@H](CCC(N)=O)C(=O)N(C)[C@@H](CCCNC(=N)N)C(=O)N[C@@H](Cc3ccc(O)cc3)C(N)=O)[C@@H](C)O)C(C)C)c(=O)c2c1 (stereo partly shown) [Example 12] | – | < 5.30 | < 5.30 | 5.54 | 43 | –
CC[C@H](C)[C@H](NC(C)=O)C(=O)N[C@@H](CCCCN)C(=O)N1CCN(c2ccc3ccn(CC(=O)N[C@@H](CCCNC(=N)N)C(=O)N[C@@H](Cc4c[nH]cn4)C(=O)N[C@@H](Cc4ccc(O)cc4)C(=O)N[C@@H](CC(C)C)C(=O)N[C@@H](CC(N)=O)C(=O)N[C@@H](Cc4c[nH]c5ccccc45)C(=O)N[C@H](C(=O)N[C@H](C(=O)N[C@@H](CCCNC(=N)N)C(=O)N[C@@H](CCC(N)=O)C(=O)N(C)[C@@H](CCCNC(=N)N)C(=O)N[C@@H](Cc4ccc(O)cc4)C(N)=O)[C@@H](C)O)C(C)C)c(=O)c3c2)CC1 [Example 13] | – | < 5.30 | < 5.30 | 5.63 | 49 | 9.74

From US8299023B2, “Neuropeptide-2 receptor (Y-2R) agonists” (Hoffmann-La Roche Inc., priority 2008, dated 2012)
